ChEMBL document CHEMBL4483862, “Open-source discovery of chemical leads for next-generation chemoprotective antimalarials” (2018)

System: Plasmodium berghei
Test: Luciferase/luciferin-expressing antifolate-resistant parasites were used to infect a culture of HepG2 cells that were pre-incubated with compounds. Infected hepatocytes emit light due to the luciferase reaction. Assay results are presented as the percent inhibition of light emission compared to control. […]
Type: functional
Details: sporozoite; for IC90: read-out: LUCIFERASE INFECTION ASSAY - IC90
[1] = read-out: LUCIFERASE INFECTION ASSAY - IC50

Row | SMILES | IC90 [µM] | also measured
1 | Cc1ccc(CNC(=O)CN2CCCN(Cc3ccc(Cl)cc3)CC2)cc1F | > 10 | IC50 (HEPG2TOX_HILL_SLOPE 2.47, HEPG2TOX_R_SQUARED 0.19, PBLUC_HILL_SLOPE 1.42, PBLUC_R_SQUARED 0.29, read-out: LUCIFERASE INFECTION ASSAY - IC50): 4.84 µM
2 | CNc1ccc(CSc2ccc(C(F)(F)F)cn2)cc1C(F)(F)F | > 9.01 | IC50 [1]: > 9.01 µM
3 | COc1ccc(CNC(=O)c2ccc(C3(CNc4cccc(OC)c4)CC3)cc2)cc1 | > 10 | IC50 [1]: > 10 µM
4 | Fc1cccc(-c2cnc3sc(NCCc4ccncc4)nn23)c1 | > 9.72 | IC50 (HEPG2TOX_HILL_SLOPE 0.66, HEPG2TOX_R_SQUARED 0.128, read-out: LUCIFERASE INFECTION ASSAY - IC50): > 9.72 µM
5 | Cc1ccc(S(=O)(=O)N2CCN(C(=O)/C=C/c3ccsc3)CC2)cc1 | > 10 | IC50 (FFLUC_HILL_SLOPE 16.5, FFLUC_R_SQUARED 0.182, read-out: LUCIFERASE INFECTION ASSAY - IC50): > 10 µM
6 | CCN(Cc1ccccc1)c1ccc(/C=N/Nc2ccc(C)c(Cl)c2)cc1 | > 10 | IC50 (FFLUC_HILL_SLOPE 2.55, FFLUC_R_SQUARED 0.818, read-out: LUCIFERASE INFECTION ASSAY - IC50): > 10 µM
7 | O=C1N=C(Nc2cccnc2)S/C1=C/c1ccc2ncccc2c1 | 9.5 | IC50 (HEPG2TOX_HILL_SLOPE 7.45, HEPG2TOX_R_SQUARED 0.476, PBLUC_HILL_SLOPE 2.82, PBLUC_R_SQUARED 0.798, read-out: LUCIFERASE INFECTION ASSAY - IC50): 4.36 µM
8 | CNS(=O)(=O)c1cc(NS(=O)(=O)/C=C/c2ccccc2)ccc1C | > 10 | IC50 [1]: > 10 µM
9 | Cc1ccc(-n2c(SCC(=O)N3c4ccc(S(N)(=O)=O)cc4CC3C)nc3ccccc32)cc1 (centres undefined) | > 10 | IC50 (FFLUC_HILL_SLOPE 2.97, FFLUC_R_SQUARED 0.377, PBLUC_HILL_SLOPE 1.55, PBLUC_R_SQUARED 0.53, read-out: LUCIFERASE INFECTION ASSAY - IC50): 5.31 µM
10 | COC(=O)c1ccc(-n2c(C)cc(C(=O)COC(=O)c3cc4c(=O)n5ccccc5nc4s3)c2C)cc1 | > 10 | IC50 [1]: 9.43 µM
11 | CNc1nc2cnc(-c3cccc(Oc4ccccc4)c3)cc2n1-c1cccc(F)c1 | > 10 | IC50 (FFLUC_HILL_SLOPE 5.28, FFLUC_R_SQUARED 0.776, PBLUC_HILL_SLOPE 4.98, PBLUC_R_SQUARED 0.188, read-out: LUCIFERASE INFECTION ASSAY - IC50): 8.03 µM
12 | COc1cc(OC)cc(-c2cn3c(-c4ccc5c(ccn5C)c4)cnc3cn2)c1 | 0.163 | IC50 (HEPG2TOX_HILL_SLOPE 3.11, HEPG2TOX_R_SQUARED 0.612, PBLUC_HILL_SLOPE 2.08, PBLUC_R_SQUARED 0.748, read-out: LUCIFERASE INFECTION ASSAY - IC50): 0.0568 µM
13 | Fc1ccc(-c2c[n+](-c3ccccc3)c3n2CCCS3)cc1 | > 10 | IC50 [1]: > 10 µM
14 | CNc1nc2cnc(Nc3ccc(C(C)C)cc3)cc2n1Cc1ccc(OC)c(OC)c1 | > 10 | IC50 (PBLUC_HILL_SLOPE 2.59, PBLUC_R_SQUARED 0.223, read-out: LUCIFERASE INFECTION ASSAY - IC50): 6.81 µM
15 | CN(C1=C(NC(=O)c2ccccc2)C(=O)c2ccccc2C1=O)C1CCS(=O)(=O)C1 (centres undefined) | > 10 | IC50 (PBLUC_HILL_SLOPE 12.4, PBLUC_R_SQUARED 0.0349, read-out: LUCIFERASE INFECTION ASSAY - IC50): 9.32 µM
16 | Cc1ccc(C(c2cc(Cl)c3cccnc3c2O)N2CCCC2)cc1 (centres undefined) | 4.12 | IC50 (FFLUC_HILL_SLOPE 12.7, FFLUC_R_SQUARED 0.41, HEPG2TOX_HILL_SLOPE 6.94, HEPG2TOX_R_SQUARED 0.0505, PBLUC_HILL_SLOPE 13.5, PBLUC_R_SQUARED 0.562, read-out: LUCIFERASE INFECTION ASSAY - IC50): 3.5 µM

Row | SMILES | IC90 [µM] | also measured
17 | Clc1ccc2nc(-c3cnn(-c4ccccc4)c3)[nH]c2c1 | 7.38 | IC50 (HEPG2TOX_HILL_SLOPE 1.09, HEPG2TOX_R_SQUARED 0.847, PBLUC_HILL_SLOPE 23.0, 2.49, PBLUC_R_SQUARED 0.431, 0.566, read-out: LUCIFERASE INFECTION ASSAY - IC50): 5.39 µM
18 | O=C(CN1CCN(C(=O)/C=C/c2sc3ccccc3c2Cl)CC1)NC1CC1 | 8.7 | IC50 (PBLUC_HILL_SLOPE 3.79, PBLUC_R_SQUARED 0.282, read-out: LUCIFERASE INFECTION ASSAY - IC50): 4.87 µM
19 | Cc1sc2ncnc(NC(C)c3ccc(-n4ccnc4)cc3)c2c1C (centres undefined) | > 10 | IC50 (HEPG2TOX_HILL_SLOPE 0.71, HEPG2TOX_R_SQUARED 0.913, PBLUC_HILL_SLOPE 1.13, PBLUC_R_SQUARED 0.519, read-out: LUCIFERASE INFECTION ASSAY - IC50): 2.6 µM
20 | O=C(Nc1ccc(S(=O)(=O)NCCCN2CCOCC2)cc1)c1csc(-c2ccsc2)n1 | > 10 | IC50 (PBLUC_HILL_SLOPE 27, PBLUC_R_SQUARED 0.0565, read-out: LUCIFERASE INFECTION ASSAY - IC50): 9.66 µM
21 | Cc1ccc(NC(=O)N2[C@@H]3CC[C@@H](C3)[C@H]2c2nc3cccc(OCc4ccccc4)c3[nH]2)cc1 | > 10 | IC50 [1]: > 10 µM
22 | CCC(C)NC(=O)c1c(NC(=O)c2ccc(Cl)cc2Cl)nc2ccc(C)cn12 (centres undefined) | 0.967 | IC50 (FFLUC_HILL_SLOPE 13.5, FFLUC_R_SQUARED 0.613, HEPG2TOX_HILL_SLOPE 1.25, HEPG2TOX_R_SQUARED 0.963, PBLUC_HILL_SLOPE 11.1, PBLUC_R_SQUARED 0.736, read-out: LUCIFERASE INFECTION ASSAY - IC50): 0.793 µM
23 | Cc1oc(-n2cccc2)c(C#N)c1C(=O)Nc1ccn(C)n1 | > 10 | IC50 [1]: > 10 µM
24 | O=C(Nc1nc2ccc(SC(F)F)cc2s1)c1ccc(Cl)nc1 | > 10 | IC50 (HEPG2TOX_HILL_SLOPE 12.1, HEPG2TOX_R_SQUARED 0.0104, read-out: LUCIFERASE INFECTION ASSAY - IC50): > 10 µM
25 | Cc1ccc(C)n1-c1nc2cc(C(=O)NC3CC3)ccc2s1 | 7.33 | IC50 (PBLUC_HILL_SLOPE 2.39, PBLUC_R_SQUARED 0.619, read-out: LUCIFERASE INFECTION ASSAY - IC50): 2.93 µM
26 | CN(C)C(=O)C1CCCN1c1ccc(C(=O)c2ccccc2)cc1[N+](=O)[O-] (centres undefined) | > 10 | IC50 (HEPG2TOX_HILL_SLOPE 1.22, HEPG2TOX_R_SQUARED 0.897, PBLUC_HILL_SLOPE 2.78, PBLUC_R_SQUARED 0.507, read-out: LUCIFERASE INFECTION ASSAY - IC50): 6.2 µM
27 | Nc1c(C(=O)c2ccc(Cl)cc2)sc2nc3c(c(-c4cccs4)c12)CCCC3 | > 7.77 | IC50 (FFLUC_HILL_SLOPE 44.8, FFLUC_R_SQUARED 0.458, PBLUC_HILL_SLOPE 1.88, PBLUC_R_SQUARED 0.367, read-out: LUCIFERASE INFECTION ASSAY - IC50): 5.01 µM
28 | O=C(Nc1nc2c(s1)CCC2)c1cnn(-c2ccccc2)c1C1CC1 | 0.405 | IC50 (FFLUC_HILL_SLOPE 2.39, FFLUC_R_SQUARED 0.896, PBLUC_HILL_SLOPE 0.607, PBLUC_R_SQUARED 0.989, read-out: LUCIFERASE INFECTION ASSAY - IC50): 0.0108 µM
29 | Nc1ncc(-c2cc(C(F)(F)F)cc(C(F)(F)F)c2)cc1-c1cncc2ccccc12 | > 7.62 | IC50 [1]: > 7.62 µM
30 | CC(C)[C@H](NC(=O)c1ccccc1Cl)C(=O)Nc1nc(-c2ccccn2)cs1 | 6.36 | IC50 (HEPG2TOX_HILL_SLOPE 4.61, HEPG2TOX_R_SQUARED 0.937, PBLUC_HILL_SLOPE 2.78, PBLUC_R_SQUARED 0.749, read-out: LUCIFERASE INFECTION ASSAY - IC50): 2.89 µM
31 | CC(C)(C)c1cc(C(=O)Nc2ccccc2)n(Cc2ccc(Cl)cc2Cl)n1 | > 8.2 | IC50 (PBLUC_HILL_SLOPE 3.9, PBLUC_R_SQUARED 0.166, read-out: LUCIFERASE INFECTION ASSAY - IC50): 5.99 µM
32 | N#CC1=C2Sc3ccccc3N2C(O)(C(F)(F)F)C(C(=O)C(F)(F)F)=C1 (centres undefined) | 4.76 | IC50 (PBLUC_HILL_SLOPE 9.79, 8.06, PBLUC_R_SQUARED 0.178, 0.335, read-out: LUCIFERASE INFECTION ASSAY - IC50): 3.71 µM
